Results on four molecules are retold here after patent US20230181474A1, “TABLET COMPRISING OPICAPONE” (Ono Pharmaceutical Co., Ltd., priority 2020, published 2023).

Each structure is given as a SMILES string.

The nature of the data set: Evaluation of particle size by dynamic particle image analysis (iSpect DIA-10). Type of data set: physicochemical. The conditions noted are these: dispersion medium 10% polysorbate 20 aqueous solution. An excerpt: In the present specification, “maximum length” refers to a maximum length between two points on a contour of a particle, and this may be measured by the dynamic image analysis method. An example of the equipment used for measurement is the dynamic particle image analysis system iSpect DIA-10 (Shimadzu Corporation). In the present invention, the maximum length of particles of opicapone or a pharmaceutically acceptable salt thereof in terms of D50 value is less than 46 µm, preferably 45 µm or less, more preferably 40 µm or less, even more preferably 35 µm or less, and particularly preferably 30 µm or less or 29 µm or less. In the present invention, the maximum length of particles of opicapone or a pharmaceutically acceptable salt thereof in terms of D90 value is, for example, less than 111 µm, preferably 110 µm or less, more preferably 100 µm or less, even more preferably 90 µm or less, and particularly preferably 80 µm or less.
In the present specification, “equivalent circle diameter” refers to the diameter of a circle that has the same area as the projected area of a particle image, and this may be measured by the dynamic image analysis method. An example of the equipment used for measurement is the dynamic particle image analysis system iSpect DIA-10 (Shimadzu Corporation).
The particle sizes of the non-micronized product and the micronized products A1 to A4 prepared in Example 1 using the opicapone drug substance were measured under the following conditions.
• Measurement equipment: Dynamic particle image analysis system iSpect DIA-10 (Shimadzu Corporation) • Evaluation items: Equivalent circle diameter, maximum length • Dispersion medium: 10% polysorbate 20 aqueous solution • Sample: Approximately 10 mg of the measurement sample was placed in 1 ml of the dispersion medium, suspended, and then diluted 100-fold.
As for `Cc1nc(Cl)c(-c2noc(-c3cc(O)c(O)c([N+](=O)[O-])c3)n2)c(C)c1Cl` [Micronized Product A2], the “Equivalent Circle Diameter D10” value was found to be 7 µm, the “Equivalent Circle Diameter D50” value came to 11 µm, the “Equivalent Circle Diameter D90” value was found to be 18 µm and the “Maximum Length D10” value came to 16 µm. For the same molecule, the “Maximum Length D50” value was 26 µm and the “Maximum Length D90” value was determined as 60 µm.
Regarding `Cc1nc(Cl)c(-c2noc(-c3cc(O)c(O)c([N+](=O)[O-])c3)n2)c(C)c1Cl` [Micronized Product A3], the “Equivalent Circle Diameter D10” value is recorded as 7 µm, the “Equivalent Circle Diameter D50” value was determined as 11 µm, the “Equivalent Circle Diameter D90” value is listed as 19 µm and the “Maximum Length D10” value came to 15 µm. In addition, the “Maximum Length D90” value stood at 73 µm.
Take `Cc1nc(Cl)c(-c2noc(-c3cc(O)c(O)c([N+](=O)[O-])c3)n2)c(C)c1Cl` [Micronized Product A 1]: the “Equivalent Circle Diameter D10” value is listed as 7 µm, the “Equivalent Circle Diameter D50” value turned out to be 11 µm, the “Maximum Length D10” value amounted to 16 µm and the “Maximum Length D50” value was found to be 28 µm. Besides, the “Maximum Length D90” value is 63 µm.
As to `Cc1nc(Cl)c(-c2noc(-c3cc(O)c(O)c([N+](=O)[O-])c3)n2)c(C)c1Cl` [Non-micronized Product], the “Equivalent Circle Diameter D10” value is listed as 6 µm, the “Equivalent Circle Diameter D50” value was found to be 13 µm, the “Equivalent Circle Diameter D90” value came out at 23 µm and the “Maximum Length D10” value is recorded as 16 µm. Also, the “Maximum Length D90” value was 111 µm.
